Assays:
ALOMY [1] = experiment: B. Herbicidal post-emergence action on harmful plants (Tables B); assay type: in vivo, Alopecurus myosuroides; settings: application rate 1280 g/ha; Table B9a
Procedure: (§1) Seeds of mono- and dicotyledonous weed plants were placed in plastic pots in sandy loam soil (doubly sown with in each case one species of mono- or dicotyledonous weed plants per pot), covered with soil and cultivated in a greenhouse under controlled growth conditions. 2 to 3 weeks after sowing, the test plants were treated at the one-leaf stage. The compounds of the invention, formulated in the form of wettable powders (WP) or as emulsion concentrates (EC), were applied onto the green parts of the plants as aqueous suspension or emulsion with addition of 0.5% additive at a water application rate of 600 liters per hectare (converted). After the test plants had been kept in the greenhouse under optimum growth conditions for about 3 weeks, the activity of the preparations was rated visually in comparison to untreated controls. For example, 100% activity = the plants have died, 0% activity = like control plants. Tables B1 to B12, below, show the effects of selected compounds of the general formula (I) according to table 1 on various harmful plants and an application rate corresponding to 1280 g/ha or below obtained by the experimental procedure mentioned above. Table B1a: post-emergence activity at 1280g/ha against ABUTH in %

POAAN [2] = experiment: A. Herbicidal pre-emergence action on harmful plants (Tables A); assay type: in vivo, Poa annua
Method in brief: (§2)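 Greenhouse pre-emergence test: compound applied to the soil surface at 1280 g/ha or below, and herbicidal effect rated visually at ca. 3 weeks on a 0–100% scale against untreated plants.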

DIGSA [3] = experiment: as above; assay type: in vivo, Digitaria sanguinalis
Method in brief: as §2

ALOMY [4] = experiment: as above; assay type: in vivo, Alopecurus myosuroides
Method in brief: as §2

ECHCG [5] = experiment: B. Herbicidal post-emergence action on harmful plants (Tables B); assay type: in vivo, Echinochloa crus-galli; settings: application rate 1280 g/ha; Table B2a
Procedure: as §1

ABUTH = experiment: as above; assay type: in vivo, Abutilon theophrasti; settings: application rate 1280 g/ha; Table B1a
Procedure: as §1

VERPE = experiment: as above; assay type: in vivo, Veronica persica
Procedure: as §1

STEME [6] = experiment: A. Herbicidal pre-emergence action on harmful plants (Tables A); assay type: in vivo, Stellaria media; settings: visual grading after ca. 3 weeks vs untreated controls, 100% = plants have died off, 0% = as control plants
Method in brief: as §2

SETVI [7] = experiment: as above; assay type: in vivo, Setaria viridis; settings: visual grading after ca. 3 weeks vs untreated controls, 100% = plants have died off, 0% = as control plants
Method in brief: as §2

MATIN [8] = experiment: as above; assay type: in vivo, Matricaria inodora; settings: visual grading after ca. 3 weeks vs untreated controls, 100% = plants have died off, 0% = as control plants
Method in brief: as §2

ECHCG [9] = experiment: as above; assay type: in vivo, Echinochloa crus-galli; settings: visual grading after ca. 3 weeks vs untreated controls, 100% = plants have died off, 0% = as control plants
Method in brief: as §2

LOLRI = experiment: as above; assay type: in vivo, Lolium rigidum; settings: visual grading after ca. 3 weeks vs untreated controls, 100% = plants have died off, 0% = as control plants
Method in brief: as §2

POAAN [10] = experiment: B. Herbicidal post-emergence action on harmful plants (Tables B); assay type: in vivo, Poa annua
Method in brief: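 Activity was scored visually as % damage (100% = dead, 0% = like untreated) about 3 weeks after treatment. Plants at the one-leaf stage, 2-3 weeks old, were sprayed with WP/EC formulations plus 0.5% additive (600 L/ha water, up to 1280 g/ha). Plants were grown in sandy loam in a greenhouse.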

SETVI [11] = experiment: as above; assay type: in vivo, Setaria viridis; settings: application rate 1280 g/ha; Table B5
Procedure: as §1

DIGSA [12] = experiment: as above; assay type: in vivo, Digitaria sanguinalis; settings: application rate 1280 g/ha; Table B12a
Procedure: as §1

AMARE = experiment: A. Herbicidal pre-emergence action on harmful plants (Tables A); assay type: in vivo, Amaranthus retroflexus
From the text: Seeds of mono- and dicotyledonous weed plants were sown in plastic pots (double sowings with one species of mono- and one species of dicotyledonous weed plants per pot), in sandy loam, and covered with soil. The compounds according to the invention, formulated in the form of wettable powders (WP) or as emulsifiable concentrates (EC), were applied to the surface of the covering soil as aqueous suspension or emulsion, with the addition of 0.5% of an additive, at an application rate of 6001 of water per hectare (converted). Following treatment, the pots were placed in a greenhouse and kept under optimum growth conditions for the test plants. The visual grading of the damage to the test plants was carried out after ca. 3 weeks in comparison to untreated controls (herbicidal effect in percent (%): 100% effect = plants have died off, 0% effect = as control plants). Tables A1 to A12, below, show the effects of selected compounds of the general formula (I) according to table 1 on various harmful plants and an application rate corresponding to 1280 g/ha or below obtained by the experimental procedure mentioned above. Table A1: pre-emergence activity at 1280g/ha against ABUTH in %

MATIN [13] = experiment: B. Herbicidal post-emergence action on harmful plants (Tables B); assay type: in vivo, Matricaria inodora; settings: application rate 1280 g/ha; Table B4a
Procedure: as §1

STEME [14] = experiment: as above; assay type: in vivo, Stellaria media; settings: application rate 1280 g/ha; Table B6
Procedure: as §1

[15] = application rate 320 g/ha, Table A7b
[16] = application rate 1280 g/ha, visual grading after ca. 3 weeks vs untreated controls, 100% = plants have died off, 0% = as control plants
[17] = application rate 1280 g/ha, Table A12a
[18] = application rate 1280 g/ha, Table A9a
[19] = application rate 1280 g/ha, Table B11a
[20] = application rate 80 g/ha, Table A7c
[21] = application rate 320 g/ha, Table A12b
[22] = application rate 1280 g/ha, Table B7a
[23] = application rate 80 g/ha, Table A12c

Structure (SMILES)	pre-emergence activity against POAAN (POAAN [2]; [15]) [%]	pre-emergence activity against POAAN (POAAN [2]; [16]) [%]	pre-emergence activity against DIGSA (DIGSA [3]; [17]) [%]	pre-emergence activity against ALOMY (ALOMY [4]; [18]) [%]	post-emergence activity against ECHCG (ECHCG [5]) [%]	pre-emergence activity against STEME (STEME [6]; application rate 1280 g/ha) [%]	pre-emergence activity against SETVI (SETVI [7]; application rate 320 g/ha) [%]	pre-emergence activity against SETVI (SETVI [7]; application rate 1280 g/ha) [%]	pre-emergence activity against MATIN (MATIN [8]; application rate 320 g/ha) [%]	pre-emergence activity against MATIN (MATIN [8]; application rate 1280 g/ha) [%]	pre-emergence activity against POAAN (POAAN [2]; [20]) [%]	pre-emergence activity against DIGSA (DIGSA [3]; [21]) [%]	pre-emergence activity against ECHCG (ECHCG [9]; application rate 320 g/ha) [%]	pre-emergence activity against ECHCG (ECHCG [9]; application rate 1280 g/ha) [%]	pre-emergence activity against LOLRI (LOLRI; application rate 1280 g/ha) [%]	post-emergence activity against POAAN (POAAN [10]; [22]) [%]	pre-emergence activity against STEME (STEME [6]; application rate 320 g/ha) [%]	post-emergence activity against SETVI (SETVI [11]) [%]	post-emergence activity against MATIN (MATIN [13]) [%]	pre-emergence activity against LOLRI (LOLRI; application rate 320 g/ha) [%]	further results
Cn1cc(C(=O)N2CCCC2Cc2cc(F)ccc2F)c(COc2ccccc2)n1 (racemic) [Example I-010]	90	100	90	100	90	90															post-emergence activity against ALOMY (ALOMY [1]): 90%; post-emergence activity against ABUTH (ABUTH): 90%; post-emergence activity against VERPE (VERPE; [19]): 90%
COCc1nn(C)cc1C(=O)N1CCCC1C(O)c1ccccc1F (single isomer, unassigned) [Example I-054]	90	100	100			90	90	90	90	90	90	90	90	100	90	90	90	90			
COCc1nn(C)cc1C(=O)N1CCCC1Cc1ccccc1C (single isomer, unassigned) [Example I-084]	100	100	90	90	90	90	90	100	90	90	100	90	90	90	100	100	90		90	90	post-emergence activity against DIGSA (DIGSA [12]): 90%; pre-emergence activity against AMARE (AMARE; application rate 320 g/ha, Table A8b): 90%; pre-emergence activity against AMARE (AMARE; [16]): 90%; pre-emergence activity against SETVI (SETVI [7]; application rate 80 g/ha): 90%; pre-emergence activity against MATIN (MATIN [8]; application rate 80 g/ha): 90%; pre-emergence activity against DIGSA (DIGSA [3]; [23]): 90%; pre-emergence activity against ECHCG (ECHCG [9]; application rate 80 g/ha): 90%; post-emergence activity against ABUTH (ABUTH): 90%; post-emergence activity against POAAN (POAAN [10]; application rate 320 g/ha, Table B7b): 100%; post-emergence activity against VERPE (VERPE; application rate 320 g/ha, Table B11b): 90%; post-emergence activity against VERPE (VERPE; [19]): 90%; post-emergence activity against STEME (STEME [14]): 90%
COCc1nn(C)cc1C(=O)N1CCCC1Cc1cccc(F)c1F (single isomer, unassigned) [Example I-088]	100	100	100	100		90	100	100	90	90	90	100	90	100	100	90	90	90	90	100	post-emergence activity against DIGSA (DIGSA [12]): 90%; pre-emergence activity against SETVI (SETVI [7]; application rate 80 g/ha): 90%; pre-emergence activity against MATIN (MATIN [8]; application rate 80 g/ha): 90%; pre-emergence activity against DIGSA (DIGSA [3]; [23]): 100%; pre-emergence activity against ALOMY (ALOMY [4]; application rate 320 g/ha, Table A9b): 90%; pre-emergence activity against ECHCG (ECHCG [9]; application rate 80 g/ha): 90%; pre-emergence activity against LOLRI (LOLRI; application rate 80 g/ha): 90%; pre-emergence activity against STEME (STEME [6]; application rate 80 g/ha): 90%
COCc1nn(C)cc1C(=O)N1CCCC1C(C)c1ccccc1F (centres unmarked) [Example I-021]	100	100	100	90	90		100	100		90		90		100	100	90		90	90	100	
